Assay results reported in BindingDB's records for doi:10.1016/j.bmcl.2017.04.030 (Takeda Pharmaceutical, 2017).
Numbered stars: 1 amine (or outer) side, 2 acyl side, 3 side chain; on linkers, the order of the positions; unused ones are H or OH. Bridge positions count the residues as written; N and C are the ends. Square brackets hold non-standard residues; d marks the D form. Peptide text beside a SMILES is read from it. tBuAla = CC(C)(C)C[C@H](N)C(=O)O; X1 = O=C(CCC[*:2])[*:1]

Biological target: T1, Oxytocin receptor (Homo sapiens, UniProt P30559)
T1 sequence (P30559 whole entry): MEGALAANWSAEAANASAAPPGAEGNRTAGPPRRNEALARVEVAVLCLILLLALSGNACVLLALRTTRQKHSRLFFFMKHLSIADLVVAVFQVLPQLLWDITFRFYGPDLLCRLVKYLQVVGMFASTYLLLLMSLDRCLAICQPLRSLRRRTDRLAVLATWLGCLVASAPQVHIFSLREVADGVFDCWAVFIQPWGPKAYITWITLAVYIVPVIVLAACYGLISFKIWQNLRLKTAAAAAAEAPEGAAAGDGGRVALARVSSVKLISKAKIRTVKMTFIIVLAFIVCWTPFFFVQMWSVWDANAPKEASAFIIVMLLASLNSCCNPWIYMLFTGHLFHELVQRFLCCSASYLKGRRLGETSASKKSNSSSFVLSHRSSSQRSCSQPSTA
Assay: Agonist activity at human OTR expressed in CHO cells assessed as calcium mobilization measured after 30 mins by Fluo-4-AM dye based FLIPR assay

EC50 [pM] | SMILES
8 | CC[C@H](C)[C@@H]1NC(=O)[C@H](Cc2ccc(O)cc2)NC(=O)CCSSC[C@@H](C(=O)N2CCC[C@H]2C(=O)N[C@@H](CC(C)C)C(=O)NNC(N)=O)NC(=O)[C@H](CC(N)=O)NC(=O)[C@H](CCC(N)=O)NC1=O
7 | CC[C@H](C)[C@@H]1NC(=O)[C@H](Cc2ccc(O)cc2)NC(=O)CCCSC[C@@H](C(=O)N2CCC[C@H]2C(=O)N[C@@H](CC(C)(C)C)C(=O)NCC(N)=O)NC(=O)[C@H](CC(N)=O)NC(=O)[C@H](CCC(N)=O)NC1=O (YIQNCP[tBuAla]G-NH2; linker N-5 via X1)
